According to US6465428B1, “Pharmaceutical combinations based on dalfopristine and quinupristine, and on cefepime” (Aventis Pharma S.A., priority 1999, dated 2002):
≈ marks a conversion by molar mass, not a printed value.

Tests used:
[1] = system: C-MLSB resistant MRSA AW7 and P8; test: Experimental endocarditis in rats; format: in vivo, rat; conditions: i.v. pump simulating human kinetics, every 12 hours
Text: Sterile aortic vegetations were produced in female Wistar rats (weight 180 to 200 g) by the method of Heraiefet al., Infect Immunol., 37, 127-31 (1982), the disclosure of which is incorporated herein by reference in its entirety. Close by, an intravenous line containing a Silastic catheter was inserted into the jugular vein of a rat. The distal portion of the catheter was connected to a programmable pump device through a swivel, thus allowing the animals to move around their cage. The pump was set to deliver a volume of 0.2 ml of saline per hour to keep the line open until the onset of the therapy. In some experiments, quinupristine/dalfopristine was injected in combination with cefepime to the animals, with 2 infusion pumps, one to simulate human kinetics of quinupristine/dalfopristine and one to simulate human kinetics of cefepime. The 2 pumps were connected to a 2 way swivel and the drugs were infused into the animals via 2 independent jugular lines. No i.v. lines were placed in the control animals. Bacterial endocarditis was induced 24 hours after catheterization of the animals with 0.5 ml of saline containing 10^5 CFU of either of the test organisms. This inoculum was 10 times larger than the minimum inoculum producing endocarditis in 90% of the untreated rats.
Treatment was started 12 hours after bacterial challenge and lasted 3 or 5 days. The distribution of the antibiotics simulated the drug kinetics in the serum of humans. Quinupristine/dalfopristine was given to simulate treatment in humans with 7 mg/kg of the drug administered i.v. every 12 hours. Cefepime was given to simulate treatment in humans with 2 g of the drug given i.v. every 12 hours. This required, for the experiment, a total amount (mg/kg of body weight) per 12 hours of 38 mg/kg of quinupristine/dalfopristine and 142 mg/kg of cefepime.
The control rats were sacrificed at the onset of the treatment (i.e., 12 hours after inoculation) in order to measure both the frequency and the severity of valvular infection at the start of the therapy. Treated rats were sacrificed 12 hours after the low level of the last antibiotic dose of either test drug. At that time, no residual antibiotic could be detected in the blood. The valvular vegetation were dissected under sterile conditions, weighed, homogenized in 1 ml of saline, and serially diluted before being plated for colony counts. The number of colonies growing on the plates was determined after 48 hours of incubation at 35° C. Bacterial densities in the vegetations were expressed as log10 CFU/g of tissue. The minimum detection level was ≧2 log10 CFU/g of vegetation. For statistical comparisons of differences between the vegetation bacterial densities of various treatment groups, culture-negative vegetations were considered to contain 2 log10 CFU/g. […]

[2] = system: MRSA clinical isolates (Staphylococcus aureus resistant to methicillin); test: MIC by broth macrodilution; format: cell-based; conditions: for Range of MICs: 5 clinical isolates, 24 h at 35° C.
Experimental: A panel of 10 clinical isolates of MRSA (5 MLSB-susceptible (susceptible to Macrolide-Lincosamide-Streptogramin B) and 5 C-MLSB-resistant (Constitutively Resistant to Macrolide-Lincosamide-Streptogramin B)) originating from various geographical areas were tested for their susceptibilities to quinupristin/dalfopristin and to cefepime. Two of these isolates, namely AW7 and P8, were further used for animal experiments. These both were C-MLSB-resistant.
Bacteria were grown at 35° C., either in liquid cultures in tryptic soy broth (TSB; Difco Laboratories, Detroit, Mich.) or cation supplemented Mueller Hinton Broth (MHB; Difco), or on tryptic soy agar (TSA; Difco). All growth media were supplemented with 2% of sodium chloride to increase the expression of β-lactam resistance by MRSA. Bacterial stocks were kept at −70° C. in TSB, supplemented with 10% (vol/vol) glycerol.
The MIC (minimum inhibitory concentration) of the tested antibiotics was determined by a known broth macrodilution method (D. Amsterdam, Susceptibility testing of antimicrobials in liquid media, p.52-111, In V. Lorian ed., Antibiotics in Laboratory Medicine, Williams and Wilkins, Baltimore (1996)) with final inoculum of 10^5 to 10^6 CFU/ml. The MIC was defined as the lowest antibiotic concentration that inhibited visible bacterial growth after 24 hours of incubation at 35° C.

CO/N=C(\C(=O)N[C@@H]1C(=O)N2C(C(=O)[O-])=C(C[N+]3(C)CCCC3)CS[C@H]12)c1csc(N)n1 [cefepime, (6R,7R)-7-(2-(2-aminothiazol-4-yl)-2(Z)-(methoxyimino)acetamido)-3-(1-methyl-pyrrolidiniomethyl)-3-cephem-4-carboxylate]
infected rats/total rats ([1]; Strain AW-7): 6/6 | median log10 CFU/g of vegetation ([1]; Strain AW-7): (8.6) log10 CFU/g | infected rats/total rats ([1]; Strain P8): 8/8 | median log10 CFU/g of vegetation ([1]; Strain P8): (9.0) log10 CFU/g | Range of MICs ([2]; MRSA C-MLSB-R): >64 mg/L | Range of MICs ([2]; MRSA MLSB-S): >64 mg/L | MIC ([2]; Staphylococcus aureus, C-MLSB resistant MRSA AW7 and P8): 64 µg/mL (≈ 133 µM)
